“Also recorded” adds a separate entry of the source. Where two headings read alike, the source gives them in different places.
Key:
Ehrlich ascites tumour = conditions: for Rescue of mice from transplanted Ehrlich tumour: suboptimal (moderate) dose alone, started the day after transplantation
Method: Tumour cells harvested from ascitic mouse were mainly solitary.
The experiment describes transplantation of the malignant mouse Ehrlich ascites tumour to two adult male mice (NMRI/Bom). Each of them received 100000 cells intraperitonally. One mouse was treated two times a week with 4-OH-OPB intraperitonally.
Cells were injected 90 minutes after the addition of 4-OH-OPB to the suspension. The control received the same cell suspension without 4-OH-OPB.
At the same time, dilutions of 4-OH-OPB were injected intraperitonally to the transplanted mice in order to find the smallest active dose.
The cells from ascites in the untreated control mouse was frozen on serum with 10% DMSO. The cells were thawed in water of 37° C., diluted in serum, and pelleted by low speed centrifugation after the addition of 2 ml FBS, to remove DMSO.
Each animal received such cells suspended in portions of 1 ml in RPMI (pH˜6.9).
The frozen and thawed Ehrlich ascites cells are diluted in a volume of 1 ml RPMI (pH˜6.9) for each animal. No calf serum was added to the medium to avoid immunisation of the mice.
Cell number: 90000 tumour cells in 0.7 ml RPMI were injected intraperitonally to each animal.
The total cell number in the ampoule was 7.5 million cells. The cells were thawed, and 2 ml FBS was added before low speed centrifugation. […] Than separate vessels were prepared for each animal. The cell tube for animal number 3 received Colchicine as indicated in the table on day 0 one hour before the cells were injected.
After mixing the same volume was transferred from this tube to the last tube.
The content of the last two tubes was injected intraperitonally to each of the mice number 1 and 2 respectively.

[1] = system: polyoma virus transformed BHK21/c13 cells, clone S100T1; assay: Clonal test: clonal growth of S100T1 cells in soft agar (Exp 2, 4, 6, 15, 16); type: cell-based, hamster; conditions: for Growth, results after 3 days / Concentration inhibiting (stopping) clonal growth: Exp 2; for Growth, results after 3 days: 400000 S100T1 cells, 1.5% agarose; for Concentration inhibiting (stopping) clonal growth: S100T1, 1.5% agarose, 3 days; for Clonal growth, result day 7: Exp 4, 3 μM, 120000 S100T1 cells, 1.1% agarose; for Significance / Growth: 4-OH—OPB No 11; for Clonal inhibition: S100T1
[2] = Exp 8 mouse 7: 1.09 μl 20 mM i.p., first injection 3 days after tumour (36.3 μM i.p.)
[3] = Exp 8 mouse 7: 1.09 μl 20 mM i.p., first injection 3 days after tumour (36.3 μM i.p.), listed as 4-OH—OPB

**Q.** What does the source list for CCCCC1(O)C(=O)N(c2ccccc2)N(c2ccc(O)cc2)C1=O (centres unmarked) [4-OH-OPB, 4-butyl-4-hydroxy-2(p-hydroxyphenyl)-1-phenyl-3,5-pyrazolidinedione]?
**A.** Day 15 status (Ehrlich ascites tumour; [2]): lens-sized; Day 15 weight (Ehrlich ascites tumour; [2]): 30.5 gram; Day 15 weight/initial weight (Ehrlich ascites tumour; [2]): 1.00; Section day 17: ascites (Ehrlich ascites tumour; [2]): 15 µL; Section day 17: solid tumour (Ehrlich ascites tumour; [2]): pea-sized; Result (tumour growth) (Ehrlich ascites tumour; [3]): Ascites; also recorded: contr.) + solid; Section day 17: ascites (Ehrlich ascites tumour; [3]): site, 15 μl ascites,; Section day 17: solid tumour (Ehrlich ascites tumour; [3]): Pea-size tumour at inj.; tumour in abdominal wall, findings on section (Ehrlich ascites tumour; Exp 18, at killing, control 2 × 3 mm tumour): Lens sized; ascites with Ehrlich cells, findings on section (Ehrlich ascites tumour; Exp 18, at killing, control 4 ml): 0.1 mL; day 14 status (Ehrlich ascites tumour; Exp 18, day 14 after ip transplantation, mouse 1 killed, mice 2 and 3 marked '?'): Ascites; weight gain in % (Ehrlich ascites tumour; Exp 18, one mouse each, ip: mouse 1 4-OH—OPB from day 1, mouse 2 Etoposide + 4-OH—OPB from day 1, mouse 3 Colchicine from day 0, control mouse 42.4): 32.3%; Rescue of mice from transplanted Ehrlich tumour (Ehrlich ascites tumour; Exp 18): missing cure; Rescue of mice from transplanted Ehrlich tumour (Ehrlich ascites tumour; Exp 18, listed as 4-OH—OPB): not rescued. Colchicine alone in high dose did; Growth, results after 3 days ([1]; 500 nM): inhibited; Growth, results after 3 days ([1]; 1000 nM): inhibited; Growth, results after 3 days ([1]; 1500 nM): inhibited; Growth, results after 3 days ([1]; 2000 nM): inhibited; Growth, results after 3 days ([1]; 3000 nM): inhibited; Concentration inhibiting (stopping) clonal growth [1]: ≥ 500 nM; Concentration inhibiting (stopping) clonal growth ([1]; listed as 4-OH—OPB): Even 500 nM stopped clonal growth; Clonal growth, result day 7 [1]: no growth was observed; Clonal growth, result day 7 ([1]; listed as 4-OH—OPB): Single cells only; also recorded: Completely stopped clonal growth in; Susceptibility after single cells had formed small clones (colonies) ([1]; Exp 6): no longer susceptible; Concentration giving good clonal inhibition ([1]; Exp 6, S100T1, 120000 cells, treatment immediately after seeding): above 1 μM; Growth inhibition at 30 μM when treatment delayed 24 hours ([1]; Exp 6, S100T1, small colonies already formed): small growth inhibition; also recorded: some inhibition of growth; Susceptibility after single cells had formed small clones (colonies) ([1]; Exp 6, listed as 4-OH—OPB): they were not susceptible any more.; Effect on clonal growth at 2 and 20 μM ([1]; Exp 15, 32000 S100T1 cells/well): inhibiting clonal growth; Control compared with the other compounds ([1]; Exp 16): clearly better than any other; Significance ([1]; Exp 16 day 14, 0.67 μM): yes; Growth ([1]; Exp 16 day 14, 0.67 μM in wells): −; Significance ([1]; Exp 16 day 14, 6.7 μM): yes; Growth ([1]; Exp 16 day 14, 6.7 μM in wells): −; Significance ([1]; Exp 16 day 21, 0.67 μM): yes; Growth ([1]; Exp 16 day 21, 0.67 μM in wells): −; Significance ([1]; Exp 16 day 21, 6.7 μM): yes; Growth ([1]; Exp 16 day 21, 6.7 μM in wells): −; Clonal inhibition ([1]; 0.3 μM added after 24 hours, read after 48 hours): 0; Clonal inhibition ([1]; 0.3 μM added immediately, read after 24 hours): 0; Clonal inhibition ([1]; 0.3 μM added immediately, read after 48 hours): 0; Clonal inhibition ([1]; 1 μM added after 24 hours, read after 48 hours): 0; Clonal inhibition ([1]; 1 μM added immediately, read after 24 hours): +; Clonal inhibition ([1]; 1 μM added immediately, read after 48 hours): 0; Clonal inhibition ([1]; 3 μM added after 24 hours, read after 48 hours): 0; Clonal inhibition ([1]; 3 μM added immediately, read after 24 hours): ++; Clonal inhibition ([1]; 3 μM added immediately, read after 48 hours): +−; Clonal inhibition ([1]; 10 μM added after 24 hours, read after 48 hours): 0; Clonal inhibition ([1]; 10 μM added immediately, read after 24 hours): +++; Clonal inhibition ([1]; 10 μM added immediately, read after 48 hours): +; Clonal inhibition ([1]; 30 μM added after 24 hours, read after 48 hours): +; Clonal inhibition ([1]; 30 μM added immediately, read after 48 hours): +++; Anti-clonal effect, summary of Exp 16 ([1]; S100T1 in soft agar): 4-OH—OPB inhibited clones without escaping colonies.; Inhibition of clonal growth at 300 nM ([1]; other/earlier experiments): no inhibition

From patent US20060121449A1, “Method for selection of compounds which inhibit clonal cell growth and use thereof” (priority 2002, published 2006)
